Data published in US20150164899A1, “INHIBITION OF ADAPTOR ASSOCIATED KINASE 1 FOR THE TREATMENT OF PAIN” (priority 2012, published 2015).

What was measured:
[1] = system: formalin-induced paw flinching; assay: formalin paw test; assay type: in vivo; conditions: mice
Experimental: See example 5.4.1, above. The same test was used to confirm that the administration of an AAK1 inhibitor can also affect pain response.
Mice were tested for nociception with Automatic Nociception Analyzers (purchased from the Ozaki lab at University of California, San Diego). A metal band was placed around the left hind paw of each mouse with superglue 30 minutes prior to testing. After the 30-minute acclimation period, 20 μl of 5% formalin was subcutaneously injected in the dorsal surface of the left hind paw. Mice were individually housed in cylindrical chambers for 45 minutes. Fresh 5% formalin solution was prepared by diluting formaldehyde (Formalde-fresh 20%, Fisher Scientific, Fair Lawn, N.J.) with distilled water. Investigatory compounds were administered 30 minutes prior to formalin injection.
A computer software recorded flinches per minute, total flinches for Phase I (acute phase=first 8 minutes), and total flinches for Phase II (tonic phase between 20-40 minutes) through an electromagnetic field. See Yaksh T L, Ozaki G, McCumber D, Rathbun M, Svensson C, Malkmus S, Yaksh M C. An automated flinch detecting system for use in the formalin nociceptive bioassay. J Appl Physiol., 2001; 90:2386-402.
Various compounds of the invention were tested at different doses. Gabapentin and pregabalin were used as positive controls. Results are shown below in Table 2, wherein “*” means an effect equal to or greater than 50 percent of that of gabapentin at 200 mpk, “**” means an effect equal to or greater than 100 percent of that of gabapentin at 200 mpk, “sc” means subcutaneous administration, “ip” means in intraperitoneal administration, and “po” means oral administration.

[2] = target: T1, AAK1 (full-length human protein) (Homo sapiens, UniProt Q2M2I8); assay: P81 filter plate assay; assay type: biochemical; conditions: pyrazolo[1,5-a]pyrimidine-based inhibitors
T1 construct: NP_055726.2
Experimental: Compounds were serially diluted into a Labcyte LDV plate (Labcyte, cat# LP-0200) using a Mutiprobe (PerkinElmer) and Biomek FX (Beckman Coulter) so that the highest compound concentration was at 96 μM. Compounds were then pinged (75 nL per well) into a Greiner 384-well reaction plate (Greiner, #781076) using an ECHO 550 Liquid Handler (Labcyte). A total of 12 μl reaction buffer (IMAP buffer containing Tween and DTT, from Molecular Devices) was then added to each well of columns 1 and 13 for the negative controls and 12 μl of 2×AAK1 (0.2 nM full-length human protein, NCBI accession no. NP_055726.2) was added to the remaining wells. Enzyme was then pre-incubated with compound for 10 minutes at RT. Reactions were initiated upon Minitrak (PerkinElmer) addition of 12 μl substrate mix containing 2× Mu2 (0.2 μM, full length human protein), 2× cold ATP (2 μM), and 1.3 μCi of hot ^33P-ATP. Reactions proceeded for one hour at RT. Meanwhile, Millipore 384-well P81 filter plates (Millipore, catalog # MZPHN0W10) were placed on a plate washer (Zoom Z W, from Titertek) and pre-wet with 50 μl 1% phosphoric acid. Kinase reactions were then stopped upon addition of 24 μl of 2% phosphoric acid to each well and the Minitrak was then used to transfer 40 μl from each well into the pre-wet Millipore 384-well P81 filter plates. Reaction mixtures were incubated for 10 minutes at RT in the P81 plates, followed by washing five times with 100 μl/well of 1% phosphoric acid using the Zoom filter washer. The bottom of each filter plate was sealed followed by addition of 20 μl Microscint 40 to each well, sealing the top of the plates with Flashplate cover, and then waiting one hour until reading on the TopCount (PerkinElmer).

[3] = target: T2, AAK1 (full length human) in transfected HEK293F cells (Homo sapiens, UniProt Q2M2I8); assay: HEK281 cell-based assay (phospho-mu2 Western blot); conditions: HEK281 cell-based assay; pyrazolo[1,5-a]pyrimidine-based inhibitors; read-out: CBA IC50
T2 construct: expressed in transfected cells; host or cells: HEK293F
Experimental: HEK293F cells were cultured in media containing DMEM (Gibco, cat. #11965), 10% FBS (SAFC Biosciences, cat. #12103C), 1×GPS (glutamine, penicillin and streptomycin). On day one, cells were plated on a 10 cm dish so that they are ˜80% confluent at time of transfection. Roughly 12 million cells were in a 10 cm dish at time of transfection. On day two, each dish was transfected with 48 ug DNA and 144 ul Lipofectamine 2000 (Invitrogen, cat.#11668-019). The DNA was comprised of a mixture (per 10 cm dish) containing 3 ug AAK1/HA/pIRES (full length human, NCBI accession no. NP_055726.2), 45 μg Flag/AP2MI/pcDNA (full length human), and 1.5 ml OPTI-MEM. The Lipofectamine 2000 is made up of a mixture (per 10 cm dish) containing 144 μl Lipofectamine 2000 and 1.5 ml OPTI-MEM. Each mixture was transferred to individual 15 ml tubes and incubated at RT for 5 minutes, and then the two mixes were combined and incubated at RT for 20 minutes. Growth media was then aspirated from each 10 cm plate and replaced with 10 ml of DMEM+10% FBS (no GPS). Finally, 3 ml DNA/Lipofectamine mix was added to each 10 cm dish and mix gently followed by incubate of plate overnight at 37° C. and 5% CO2.
On day three, compounds were diluted in 100% DMSO at 1000× final concentration, followed by 3-fold serial dilutions for a total of 5 concentrations tested. Four compounds were tested per 10 cm dish. One ul of each compound dilution was then pipetted into a deep-well, 96-well plate, followed by addition of 500 μl DMEM+0.5% FBS into each well for a 2× final concentration of each compound. Cells were resuspended in a 10 cm dish by simple pipetting (HEK293 cells come off the plate that easy at this point) and then transferred to a 50 ml conical tube and pelleted by centrifugation at 1000 rpm for 5 min. Cell pellets were then resuspended in 2.75 ml DMEM+0.5% FBS per 10 cm dish and 100 μl of cell suspension transferred into each well of 96-well TC plate. Finally, 100 μl of 2× compound diluted in DMEM+0.5% FBS was then added into wells containing cell suspension for a 1× final concentration. Plates were then incubated at 37° C. and 5% CO2 for 3 hours followed by transferring of cell suspensions from each well into 12-tube PCR strips. The PCR strips were spun in a tip rack at 1000 rpm for 5 minutes to pellet cells and media was then removed by pipetting without disturbing the cell pellet.
To prepare for Western Blot analysis, cell pellets were resuspend in 40 ul 1×LDS-PAGE sample buffer (Invitrogen, cat.# NP0008)+2× Halt phophatase and protease inhibitor cocktail (Thermo Scientific, cat.#1861284), followed by sonicating each with microtip sonicator set at 5 for 8-10 seconds. Five ul of 10× NuPage Sample Reducing Agent (with […]) was to each sample followed by heat denaturing at 70 C. for 10 min on PCR machine. A total of 10 μl per sample was loaded into each lane of a 4-20% Tris-Glycine Criterion 26-well gel (Biorad, cat.#345-0034) for the phospho-mu2 blot and 10 μl per lane in a 4-12% Bis-Tris (+MES buffer) NuPAGE 26-well gel (Invitrogen, cat.# WG1403BX10) for the mu2 blot. For controls, 2 ng of phospho-mu2 or 20 ng mu2/Flag proteins were loaded in the last well of each gel. After SDS-PAGE, samples on each gel were transferred to PVDF membrane using an iBlot and membranes were blocked for one hour in TBST+5% milk, followed by wash 3× for 5-10 min with TBST. Criterion gels were probed with rabbit anti-phospho-mu2 (1:5000; a rabbit polyclonal antibody produced by New England Peptide and affinity purified at Lexicon) in TBST+5% BSA, whereas, NuPAGE gels were probed with mouse anti-Flag (1:500; Sigma, cat.# F1804) in TBST+5% milk, and these primary antibodies were incubated overnight at 4° C. on a rocker.

T2 sequence (Q2M2I8 1-863 isoform Q2M2I8-2): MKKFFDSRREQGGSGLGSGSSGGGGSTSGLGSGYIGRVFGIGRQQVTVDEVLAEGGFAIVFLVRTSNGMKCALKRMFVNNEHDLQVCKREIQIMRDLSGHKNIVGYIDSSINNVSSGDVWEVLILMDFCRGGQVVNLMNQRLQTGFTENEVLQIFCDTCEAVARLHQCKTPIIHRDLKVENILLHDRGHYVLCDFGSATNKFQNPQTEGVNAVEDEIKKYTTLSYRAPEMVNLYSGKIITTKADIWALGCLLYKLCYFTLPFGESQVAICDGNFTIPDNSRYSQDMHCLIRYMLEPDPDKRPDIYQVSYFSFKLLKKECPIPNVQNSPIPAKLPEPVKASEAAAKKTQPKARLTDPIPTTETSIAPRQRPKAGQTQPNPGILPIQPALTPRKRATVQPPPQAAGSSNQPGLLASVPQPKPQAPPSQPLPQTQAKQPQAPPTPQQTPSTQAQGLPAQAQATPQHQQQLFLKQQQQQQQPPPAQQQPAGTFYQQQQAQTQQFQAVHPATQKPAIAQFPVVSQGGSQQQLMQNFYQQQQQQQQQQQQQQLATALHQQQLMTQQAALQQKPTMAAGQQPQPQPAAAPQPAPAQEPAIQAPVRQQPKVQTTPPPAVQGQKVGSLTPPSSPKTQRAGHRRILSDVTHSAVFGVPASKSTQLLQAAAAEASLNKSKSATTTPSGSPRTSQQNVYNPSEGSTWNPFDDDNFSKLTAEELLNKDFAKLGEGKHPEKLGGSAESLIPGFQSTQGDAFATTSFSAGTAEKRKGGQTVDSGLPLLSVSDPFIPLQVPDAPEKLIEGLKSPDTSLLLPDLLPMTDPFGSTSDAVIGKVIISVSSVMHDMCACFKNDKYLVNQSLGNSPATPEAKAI
T1 sequence (Q2M2I8 1-863 isoform Q2M2I8-2): as above

`CC(C)(C)OCCCNc1ccc2ncc(-c3ccc(CN)cc3)n2n1` [3-(4-(aminomethyl)phenyl)-N-(3-(tert-butoxy)propyl)imidazo[1,2-b]pyridazin-6-amine] was tested, and the Effect ([1]; 60 mpk sc) was “** (an effect equal to or greater than 100% of that of gabapentin at 200 mpk)”.

For `CC(C)(C)OC(=O)N1CCC[C@H]1CNc1ccc2ncc(Br)n2n1` [(S)-tert-butyl 2-(((3-bromoimidazo[1,2-b]pyridazin-6-yl)amino)methyl)pyrrolidine-1-carboxylate], the Effect ([1]; 30 mpk sc) was “** (an effect equal to or greater than 100% of that of gabapentin at 200 mpk)” and the Effect ([1]; 60 mpk sc) was “** (an effect equal to or greater than 100% of that of gabapentin at 200 mpk)”.

`NCC1(CC(=O)O)CCCCC1` [Gabapentin, reference compound] was tested, and the Effect ([1]; 50 mpk sc) was “* (an effect equal to or greater than 50% of that of gabapentin at 200 mpk)” and the Effect ([1]; 200 mpk sc) was “** (an effect equal to or greater than 100% of that of gabapentin at 200 mpk)”.

In the case of `CC(C)(C)OCCNc1ccc2ncc(-c3ccc(CN)cc3)n2n1` [3-(4-(aminomethyl)phenyl)-N-(2-(tert-butoxy)ethyl)imidazo[1,2-b]pyridazin-6-amine], the Effect ([1]; 60 mpk sc) is reported as “** (an effect equal to or greater than 100% of that of gabapentin at 200 mpk)”.

For `CCCCNc1ccc2ncc(-c3ccc(-c4nnn[nH]4)cc3)n2n1` [3-(4-(1H-tetrazol-5-yl)phenyl)-N-butylimidazo[1,2-b]pyridazin-6-amine], the Effect ([1]; 60 mpk ip) was “** (an effect equal to or greater than 100% of that of gabapentin at 200 mpk)”.

For `CC(C)C[C@H](CN)CC(=O)O` [Pregabalin, reference compound], the Effect ([1]; 50 mpk sc) was “* (an effect equal to or greater than 50% of that of gabapentin at 200 mpk)”.

With `COc1ccccc1-c1cnc2ccc(N3CCN(C(=O)OC(C)C)CC3)nn12` [isopropyl 4-(3-(2-methoxyphenyl)imidazo[1,2-b]pyridazin-6-yl)piperazine-1-carboxylate] the Effect ([1]; 30 mpk sc) was “** (an effect equal to or greater than 100% of that of gabapentin at 200 mpk)” and the Effect ([1]; 60 mpk sc) was “** (an effect equal to or greater than 100% of that of gabapentin at 200 mpk)”.

In the case of `O=C(CC(F)(F)F)N1CCC[C@H]1CNc1ccn2ncc(-c3ccncc3)c2n1`, the IC50 [2] is reported as no more than 10 nM and the IC50 [3] is reported as no more than 100 nM.

For `COc1ccccc1-c1cnn2ccc(N3CC[C@H](N(C)C(=O)OC(C)(C)C)C3)nc12`, the IC50 [2] was no more than 10 nM and the IC50 [3] was no more than 100 nM.

Compound `COc1ncccc1-c1cnn2ccc(N3CC[C@H](N(C)C(=O)CC(F)(F)F)C3)nc12` has an IC50 [2] of no more than 10 nM and an IC50 [3] of no more than 10 nM.

`COc1ccccc1-c1cnn2ccc(NC[C@@H]3CCCN3C(=O)CC(C)(C)C)nc12` was tested, and the IC50 [2] was no more than 10 nM and the IC50 [3] was no more than 10 nM.

With `COC(=O)N1CCC[C@H]1CNc1ccn2ncc(-c3ccccc3OC)c2n1` the IC50 [2] was no more than 10 nM and the IC50 [3] was no more than 100 nM.

Work on `CC(C)(C)CCN1C(=O)CC[C@H]1CNc1ccn2ncc(Br)c2n1` yielded an IC50 [2] of no more than 10 nM and an IC50 [3] of no more than 100 nM.

With `COc1ncccc1-c1cnn2ccc(NCCCC(F)(F)F)nc12` the IC50 [2] was no more than 10 nM and the IC50 [3] was no more than 100 nM.

`CC(C)(C)OC(=O)N1CCC[C@H]1CNc1ccn2ncc(-c3ccccc3O)c2n1` was tested, and the IC50 [2] was no more than 10 nM and the IC50 [3] was no more than 100 nM.

`CCCC(=O)N1CCC[C@H]1CNc1ccn2ncc(-c3ccccc3OC)c2n1` gave an IC50 [2] of no more than 10 nM and an IC50 [3] of no more than 100 nM.

In the case of `COc1ncccc1-c1cnn2ccc(N3CCN(C(=O)OC(C)C)CC3=O)nc12`, the IC50 [2] is reported as no more than 10 nM and the IC50 [3] is reported as no more than 10 nM.

`CC(C)OC(=O)N1CCN(c2ccn3ncc(-c4cccnc4Cl)c3n2)CC1` was tested, and the IC50 [2] was no more than 100 nM and the IC50 [3] was no more than 1000 nM.

Compound `COc1ccncc1-c1cnn2ccc(N3CCN(C(=O)OC(C)C)CC3)nc12` has an IC50 [2] of no more than 10 nM and an IC50 [3] of no more than 100 nM.

In the case of `COc1ncccc1-c1cnn2ccc(NC[C@@H]3CCC(=O)N3CCC(C)(C)C)nc12`, the IC50 [2] is reported as no more than 10 nM and the IC50 [3] is reported as no more than 100 nM.

For `COc1ncccc1-c1cnn2ccc(C3=CCN(C(=O)OC(C)C)CC3)nc12`, the IC50 [2] was no more than 10 nM and the IC50 [3] was no more than 10 nM.

Work on `Cc1cc(-c2cnn3ccc(N4CC[C@H](N(C)C(=O)OC(C)(C)C)C4)nc23)ccn1` yielded an IC50 [2] of no more than 10 nM and an IC50 [3] of no more than 100 nM.

Compound `CCCC(=O)N(C)[C@H]1CCN(c2ccn3ncc(-c4ccccc4OC)c3n2)C1` has an IC50 [2] of no more than 10 nM and an IC50 [3] of no more than 1000 nM.

`COc1ccc(-c2cnn3ccc(N4CCN(C(=O)OC(C)C)CC4)nc23)nc1` gave an IC50 [2] of no more than 10 nM and an IC50 [3] of no more than 10 nM.

Work on `COc1cc(-c2cnn3ccc(N4CCN(C(=O)OC(C)C)CC4)nc23)c(OC)nn1` yielded an IC50 [2] of no more than 10 nM and an IC50 [3] of no more than 10 nM.

Compound `FC(F)(F)CN1CCCC1CNc1ccn2ncc(Br)c2n1` (stereo not shown) has an IC50 [2] of no more than 10 nM and an IC50 [3] of no more than 100 nM.

With `CCOC(=O)N1CCN(c2ccn3ncc(-c4cccnc4OC)c3n2)CC1` the IC50 [2] was no more than 10 nM and the IC50 [3] was no more than 100 nM.

`COC(=O)N1CCN(c2ccn3ncc(-c4cccnc4OC)c3n2)CC1` gave an IC50 [2] of no more than 100 nM and an IC50 [3] of no more than 100 nM.

`COc1ccccc1-c1cnn2ccc(NC[C@@H]3CCCN3C(=O)OC(C)C)nc12` was tested, and the IC50 [2] was no more than 10 nM and the IC50 [3] was no more than 10 nM.

`CC(C)Oc1ccccc1-c1cnn2ccc(NC[C@@H]3CCCN3C(=O)OC(C)(C)C)nc12` gave an IC50 [2] of no more than 10 nM and an IC50 [3] of no more than 10 nM.

`COc1ncccc1-c1cnn2ccc(N3CCN(C(=O)NC(C)(C)C)CC3)nc12` showed an IC50 [2] of no more than 10 nM and an IC50 [3] of no more than 100 nM.
